Columns and labels:
Test in all cases: KINOMEscan
Format in all cases: binding
Conditions in all cases: 1 μM of compound 4; read-out: POC
[1] = biological target: T1, ABL1(F317L)-nonphosphorylated (Homo sapiens, UniProt P00519, F317L)
T1 construct: purchased Eurofins DiscoverX Corporation

[2] = biological target: T2, ABL1(T315I)-phosphorylated (Homo sapiens, UniProt P00519, T315I)
T2 construct: purchased Eurofins DiscoverX Corporation

AKT2 = AKT2 (Homo sapiens, UniProt P31751)
ALK = ALK (Homo sapiens, UniProt Q9UM73)
AURKC = AURKC (Homo sapiens, UniProt Q9UQB9)
BIKE = BIKE (Homo sapiens, UniProt Q9NSY1)
BRAF = BRAF (Homo sapiens, UniProt P15056)
CAMKK1 = CAMKK1 (Homo sapiens, UniProt Q8N5S9)
CDKL1 = CDKL1 (Homo sapiens, UniProt Q00532)
CSNK1E = CSNK1E (Homo sapiens, UniProt P49674)
CSNK1G1 = CSNK1G1 (Homo sapiens, UniProt Q9HCP0)
DMPK2 = DMPK2 (Homo sapiens, UniProt Q6DT37)
DRAK2 = DRAK2 (Homo sapiens, UniProt O94768)
EIF2AK1 = biological target: T3, EIF2AK1 (Homo sapiens, UniProt Q9BQI3)
T3 construct: purchased Eurofins DiscoverX (KINOMEscan service)

EPHA2 = biological target: T4, EPHA2 (Homo sapiens, UniProt P29317)
T4 construct: purchased Eurofins DiscoverX (KINOMEscan service)

FGR = biological target: T5, FGR (Homo sapiens, UniProt P09769)
T5 construct: purchased Eurofins DiscoverX Corporation

HCK = biological target: T6, HCK (Homo sapiens, UniProt P08631)
T6 construct: purchased Eurofins DiscoverX Corporation

IKK-alpha = IKK-alpha (Homo sapiens, UniProt O15111)
MARK3 = MARK3 (Homo sapiens, UniProt P27448)
MUSK = MUSK (Homo sapiens, UniProt O15146)
MYLK = MYLK (Homo sapiens, UniProt Q15746)
MYO3B = MYO3B (Homo sapiens, UniProt Q8WXR4)
p38-alpha = biological target: T7, p38-alpha (Homo sapiens, UniProt Q16539)
T7 construct: purchased Eurofins DiscoverX Corporation (KINOMEscan)

PFCDPK1(P. falciparum) = biological target: T8, PFCDPK1(P. falciparum) (Plasmodium falciparum, UniProt P62344)
T8 construct: purchased Eurofins DiscoverX Corporation (KINOMEscan)

PFTK1 = PFTK1 (Homo sapiens, UniProt O94921)
PRKCQ = PRKCQ (Homo sapiens, UniProt Q04759)
PRP4 = PRP4 (Homo sapiens, UniProt Q13523)
QSK = biological target: T9, QSK (Homo sapiens, UniProt Q9Y2K2)
T9 construct: purchased Eurofins DiscoverX Corporation (KINOMEscan screening service)

RIOK3 = biological target: T10, RIOK3 (Homo sapiens, UniProt O14730)
T10 construct: purchased Eurofins DiscoverX Corporation (KINOMEscan screening service)

ROCK1 = biological target: T11, ROCK1 (Homo sapiens, UniProt Q13464)
T11 construct: purchased Eurofins DiscoverX Corporation (KINOMEscan screening service)

[3] = biological target: T12, RSK1(Kin.Dom.2-C-terminal) (Homo sapiens, UniProt Q15418)
T12 construct: RSK1(Kin.Dom.2-C-terminal); purchased Eurofins DiscoverX Corporation (KINOMEscan screening service)

[4] = biological target: T13, RSK3(Kin.Dom.1-N-terminal) (Homo sapiens, UniProt Q15349)
T13 construct: RSK3(Kin.Dom.1-N-terminal); purchased Eurofins DiscoverX (KINOMEscan service)

[5] = biological target: T14, RSK4(Kin.Dom.2-C-terminal) (Homo sapiens, UniProt Q9UK32)
T14 construct: RSK4(Kin.Dom.2-C-terminal); purchased Eurofins DiscoverX (KINOMEscan service)

SGK3 = biological target: T15, SGK3 (Homo sapiens, UniProt Q96BR1)
T15 construct: purchased Eurofins DiscoverX (KINOMEscan service)

STK39 = biological target: T16, STK39 (Homo sapiens, UniProt Q9UEW8)
T16 construct: purchased Eurofins DiscoverX (KINOMEscan service)

TIE1 = biological target: T17, TIE1 (Homo sapiens, UniProt P35590)
T17 construct: purchased Eurofins DiscoverX Corporation

YANK1 = biological target: T18, YANK1 (Homo sapiens, UniProt Q8WU08)
T18 construct: purchased Eurofins DiscoverX

YANK2 = biological target: T19, YANK2 (Homo sapiens, UniProt Q9NY57)
T19 construct: purchased Eurofins DiscoverX
T19 sequence (Q9NY57 whole entry): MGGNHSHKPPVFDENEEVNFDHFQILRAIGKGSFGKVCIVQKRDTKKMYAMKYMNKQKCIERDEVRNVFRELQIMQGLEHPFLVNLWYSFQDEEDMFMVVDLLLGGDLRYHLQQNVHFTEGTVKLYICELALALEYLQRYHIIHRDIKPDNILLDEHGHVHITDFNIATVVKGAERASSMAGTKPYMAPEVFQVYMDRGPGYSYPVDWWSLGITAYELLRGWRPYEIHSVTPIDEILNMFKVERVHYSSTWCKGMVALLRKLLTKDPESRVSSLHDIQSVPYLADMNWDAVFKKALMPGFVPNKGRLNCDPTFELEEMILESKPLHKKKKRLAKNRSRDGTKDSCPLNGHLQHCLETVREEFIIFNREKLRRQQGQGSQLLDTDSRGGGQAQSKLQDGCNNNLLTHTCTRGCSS

PFTK1, sequence (O94921 whole entry): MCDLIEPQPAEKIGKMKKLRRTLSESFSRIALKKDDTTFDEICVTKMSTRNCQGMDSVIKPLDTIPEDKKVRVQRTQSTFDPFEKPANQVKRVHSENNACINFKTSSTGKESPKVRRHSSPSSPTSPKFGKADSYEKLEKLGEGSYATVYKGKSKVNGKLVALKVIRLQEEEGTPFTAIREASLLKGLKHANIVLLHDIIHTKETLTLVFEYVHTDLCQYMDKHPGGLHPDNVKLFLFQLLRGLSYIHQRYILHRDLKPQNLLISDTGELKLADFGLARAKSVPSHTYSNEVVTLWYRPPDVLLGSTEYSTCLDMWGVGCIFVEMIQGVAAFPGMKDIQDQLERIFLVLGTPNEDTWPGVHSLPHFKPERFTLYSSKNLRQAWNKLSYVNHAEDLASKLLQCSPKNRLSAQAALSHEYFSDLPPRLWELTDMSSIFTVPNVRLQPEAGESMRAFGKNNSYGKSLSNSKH
T14 sequence (Q9UK32 426-683 limits assumed): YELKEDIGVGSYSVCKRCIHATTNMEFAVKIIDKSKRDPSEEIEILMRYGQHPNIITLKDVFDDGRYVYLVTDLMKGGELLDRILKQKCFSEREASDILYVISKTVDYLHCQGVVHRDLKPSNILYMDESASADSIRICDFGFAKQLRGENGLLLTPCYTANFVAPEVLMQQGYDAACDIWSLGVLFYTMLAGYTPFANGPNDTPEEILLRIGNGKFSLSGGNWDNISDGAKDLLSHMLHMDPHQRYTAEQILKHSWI
CAMKK1, sequence (Q8N5S9 whole entry): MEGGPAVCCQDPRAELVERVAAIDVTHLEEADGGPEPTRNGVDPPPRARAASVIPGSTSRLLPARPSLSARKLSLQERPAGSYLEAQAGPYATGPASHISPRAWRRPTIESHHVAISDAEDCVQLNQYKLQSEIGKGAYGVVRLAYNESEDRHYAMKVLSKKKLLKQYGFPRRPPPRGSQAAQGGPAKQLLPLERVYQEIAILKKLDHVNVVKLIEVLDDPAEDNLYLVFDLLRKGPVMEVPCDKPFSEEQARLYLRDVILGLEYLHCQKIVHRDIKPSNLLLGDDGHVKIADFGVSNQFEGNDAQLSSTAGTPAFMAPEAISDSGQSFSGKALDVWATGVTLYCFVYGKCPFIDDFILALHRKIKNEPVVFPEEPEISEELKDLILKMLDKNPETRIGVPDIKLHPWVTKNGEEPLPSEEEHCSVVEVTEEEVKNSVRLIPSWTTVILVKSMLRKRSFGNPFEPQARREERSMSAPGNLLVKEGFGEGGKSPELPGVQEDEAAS
T18 sequence (Q8WU08 whole entry): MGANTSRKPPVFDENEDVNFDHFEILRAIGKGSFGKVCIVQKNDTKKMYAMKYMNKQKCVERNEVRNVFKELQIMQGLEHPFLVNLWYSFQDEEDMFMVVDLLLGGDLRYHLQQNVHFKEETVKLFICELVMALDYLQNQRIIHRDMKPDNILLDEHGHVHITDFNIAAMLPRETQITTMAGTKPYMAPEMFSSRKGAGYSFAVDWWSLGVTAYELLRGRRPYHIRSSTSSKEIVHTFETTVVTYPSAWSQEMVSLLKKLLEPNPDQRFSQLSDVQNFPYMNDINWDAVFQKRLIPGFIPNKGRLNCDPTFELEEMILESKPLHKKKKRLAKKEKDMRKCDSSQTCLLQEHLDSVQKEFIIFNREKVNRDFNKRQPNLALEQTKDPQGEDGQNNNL
T11 sequence (Q13464 whole entry): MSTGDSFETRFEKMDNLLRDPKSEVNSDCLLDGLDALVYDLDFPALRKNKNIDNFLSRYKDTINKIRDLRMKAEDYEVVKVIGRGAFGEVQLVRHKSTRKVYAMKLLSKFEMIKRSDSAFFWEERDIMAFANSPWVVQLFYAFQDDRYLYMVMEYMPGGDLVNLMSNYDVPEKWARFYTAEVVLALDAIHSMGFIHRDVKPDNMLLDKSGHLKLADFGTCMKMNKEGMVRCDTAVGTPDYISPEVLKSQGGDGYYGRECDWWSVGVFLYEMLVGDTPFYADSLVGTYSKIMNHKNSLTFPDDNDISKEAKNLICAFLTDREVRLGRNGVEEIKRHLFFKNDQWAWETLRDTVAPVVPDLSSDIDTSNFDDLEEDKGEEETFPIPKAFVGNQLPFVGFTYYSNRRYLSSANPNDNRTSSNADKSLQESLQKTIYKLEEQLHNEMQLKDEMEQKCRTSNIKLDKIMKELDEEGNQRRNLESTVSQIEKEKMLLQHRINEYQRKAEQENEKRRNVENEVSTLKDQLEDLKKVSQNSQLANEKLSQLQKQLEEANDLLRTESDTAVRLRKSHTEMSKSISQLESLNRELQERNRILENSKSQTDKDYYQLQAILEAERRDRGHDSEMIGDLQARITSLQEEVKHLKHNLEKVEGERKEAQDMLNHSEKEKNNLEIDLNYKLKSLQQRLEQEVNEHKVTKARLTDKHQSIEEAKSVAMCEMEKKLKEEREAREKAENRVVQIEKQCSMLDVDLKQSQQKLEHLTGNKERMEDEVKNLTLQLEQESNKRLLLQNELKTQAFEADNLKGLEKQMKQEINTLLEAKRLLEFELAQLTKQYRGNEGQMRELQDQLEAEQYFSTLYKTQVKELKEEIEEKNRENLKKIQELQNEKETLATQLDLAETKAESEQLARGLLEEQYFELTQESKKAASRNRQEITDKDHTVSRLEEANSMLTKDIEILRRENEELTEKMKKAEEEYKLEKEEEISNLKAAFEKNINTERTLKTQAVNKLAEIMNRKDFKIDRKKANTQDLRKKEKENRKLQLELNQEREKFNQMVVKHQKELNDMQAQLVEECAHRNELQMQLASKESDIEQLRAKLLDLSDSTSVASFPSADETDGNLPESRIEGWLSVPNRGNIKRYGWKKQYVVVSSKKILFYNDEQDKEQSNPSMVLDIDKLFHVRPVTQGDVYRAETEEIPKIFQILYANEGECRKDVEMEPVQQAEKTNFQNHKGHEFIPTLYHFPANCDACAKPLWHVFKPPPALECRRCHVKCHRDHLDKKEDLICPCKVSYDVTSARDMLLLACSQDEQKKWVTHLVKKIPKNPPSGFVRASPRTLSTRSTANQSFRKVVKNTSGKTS
PRKCQ, sequence (Q04759 whole entry): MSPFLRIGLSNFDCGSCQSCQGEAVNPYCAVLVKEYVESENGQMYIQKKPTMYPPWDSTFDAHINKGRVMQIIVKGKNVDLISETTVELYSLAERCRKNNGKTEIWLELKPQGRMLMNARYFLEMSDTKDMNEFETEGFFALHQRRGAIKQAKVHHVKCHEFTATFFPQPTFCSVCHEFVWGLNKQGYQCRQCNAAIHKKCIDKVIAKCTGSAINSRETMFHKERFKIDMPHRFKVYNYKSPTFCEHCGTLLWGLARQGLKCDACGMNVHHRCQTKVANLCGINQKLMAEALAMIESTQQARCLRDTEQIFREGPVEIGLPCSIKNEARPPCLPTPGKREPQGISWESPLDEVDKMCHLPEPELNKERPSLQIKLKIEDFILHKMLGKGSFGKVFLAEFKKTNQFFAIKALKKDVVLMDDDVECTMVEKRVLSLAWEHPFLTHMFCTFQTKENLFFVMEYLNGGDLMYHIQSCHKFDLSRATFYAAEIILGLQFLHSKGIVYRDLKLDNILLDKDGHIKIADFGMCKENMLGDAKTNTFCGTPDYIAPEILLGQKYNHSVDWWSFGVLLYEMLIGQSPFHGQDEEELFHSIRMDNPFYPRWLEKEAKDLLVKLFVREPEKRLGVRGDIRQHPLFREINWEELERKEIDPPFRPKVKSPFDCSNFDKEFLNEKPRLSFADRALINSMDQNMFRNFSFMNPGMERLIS
T10 sequence (O14730 whole entry): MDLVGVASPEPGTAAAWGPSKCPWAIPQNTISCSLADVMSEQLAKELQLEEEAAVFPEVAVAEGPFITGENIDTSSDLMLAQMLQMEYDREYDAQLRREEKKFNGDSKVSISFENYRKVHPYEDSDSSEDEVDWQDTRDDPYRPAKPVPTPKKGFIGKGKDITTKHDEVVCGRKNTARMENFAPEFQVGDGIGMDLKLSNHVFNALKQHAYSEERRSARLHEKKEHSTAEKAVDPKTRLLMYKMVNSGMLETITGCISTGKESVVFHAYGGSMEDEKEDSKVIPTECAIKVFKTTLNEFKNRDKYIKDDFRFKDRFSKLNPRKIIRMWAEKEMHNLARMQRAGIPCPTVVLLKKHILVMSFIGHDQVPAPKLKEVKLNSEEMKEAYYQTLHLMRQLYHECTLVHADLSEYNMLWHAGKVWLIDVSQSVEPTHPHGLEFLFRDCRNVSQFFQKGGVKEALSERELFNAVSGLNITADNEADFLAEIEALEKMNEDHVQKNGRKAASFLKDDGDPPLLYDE
CDKL1, sequence (Q00532 whole entry): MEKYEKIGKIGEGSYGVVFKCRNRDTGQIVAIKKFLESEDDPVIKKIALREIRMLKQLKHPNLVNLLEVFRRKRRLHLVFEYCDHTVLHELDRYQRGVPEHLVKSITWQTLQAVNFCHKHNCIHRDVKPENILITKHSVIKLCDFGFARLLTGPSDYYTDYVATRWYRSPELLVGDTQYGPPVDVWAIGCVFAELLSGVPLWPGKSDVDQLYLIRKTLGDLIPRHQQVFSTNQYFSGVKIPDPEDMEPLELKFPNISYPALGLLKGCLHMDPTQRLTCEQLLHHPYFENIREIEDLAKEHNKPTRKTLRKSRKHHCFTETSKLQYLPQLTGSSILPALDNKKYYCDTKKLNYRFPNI

Compound: C=CC(=O)Nc1ccc(OC)c(Nc2cc(-c3[nH]c(CC)nc3-c3cccc(NC(=O)c4cccc5c4NC(=O)c4ccccc4N5)c3)ccn2)c1 [Compound 4, N-(3-(5-(2-((5-Acrylamido-2-methoxyphenyl)amino)pyridin-4-yl)-2-ethyl-1H-imidazol-4-yl)phenyl)-11-oxo-10,11-dihydro-5H-dibenzo[b,e][1,4]diazepine-9-carboxamide]
- remaining binding at 1 µM [1]: 37%
- remaining binding at 1 µM [2]: 100%
- remaining binding at 1 µM (AKT2): 91%
- remaining binding at 1 µM (ALK): 100%
- remaining binding at 1 µM (AURKC): 100%
- remaining binding at 1 µM (BIKE): 100%
- remaining binding at 1 µM (BRAF): 90%
- remaining binding at 1 µM (CAMKK1): 85%
- remaining binding at 1 µM (CDKL1): 100%
- remaining binding at 1 µM (CSNK1E): 88%
- remaining binding at 1 µM (CSNK1G1): 93%
- remaining binding at 1 µM (DMPK2): 0%
- remaining binding at 1 µM (DRAK2): 94%
- remaining binding at 1 µM (EIF2AK1): 75%
- remaining binding at 1 µM (EPHA2): 100%
- remaining binding at 1 µM (FGR): 19%
- remaining binding at 1 µM (HCK): 14%
- remaining binding at 1 µM (IKK-alpha): 100%
- remaining binding at 1 µM (MARK3): 100%
- remaining binding at 1 µM (MUSK): 100%
- remaining binding at 1 µM (MYLK): 84%
- remaining binding at 1 µM (MYO3B): 31%
- remaining binding at 1 µM (p38-alpha): 46%
- remaining binding at 1 µM (PFCDPK1(P. falciparum)): 87%
- remaining binding at 1 µM (PFTK1): 90%
- remaining binding at 1 µM (PRKCQ): 18%
- remaining binding at 1 µM (PRP4): 46%
- remaining binding at 1 µM (QSK): 100%
- remaining binding at 1 µM (RIOK3): 100%
- remaining binding at 1 µM (ROCK1): 100%
- remaining binding at 1 µM [3]: 75%
- remaining binding at 1 µM [4]: 97%
- remaining binding at 1 µM [5]: 80%
- remaining binding at 1 µM (SGK3): 90%
- remaining binding at 1 µM (STK39): 85%
- remaining binding at 1 µM (TIE1): 100%
- remaining binding at 1 µM (YANK1): 84%
- remaining binding at 1 µM (YANK2): 63%
